Source: patent US6797721B2, “Phorboxazole derivatives for treating cancer” (Parker Hughes Institute, priority 1999, dated 2004)

Experiments:
[1] = system: human breast cancer cell line BT-20; test: In situ detection of apoptosis (nick-end-labeling, confocal microscopy); assay type: cell-based; conditions: final concentration of 100 μM, 24 hours
Procedure: The synthetic Phorboxazole A and the synthetic analogs were also assayed for apoptosis-inducing activity. Assay for apoptosis was performed by the in situ nick-end-labeling method using an ApopTag in situ detection kit (Oncor, Gaithersburg, Md.) according to the manufacturer's reconmmendations. Immunofluorescence was used to examine the morphologic features of human breast cancer cell line BT-20 (American Type Culture Collection Rockville, Md.) treated with the novel phorboxazole A derivatives of the present invention.
Cells were trypsinized from rapidly growing tissue culture flasks and seeded onto sterile 22 mm^2 coverslips in 6-well culture plates. Cells on coverslips were returned to the incubator for 24 hours prior to treatment. The phorboxazole A derivatives were added to the cells from a stock solution made in DMSO to a final concentration of 100 μM. Final DMSO concentration were kept at 0.1% in both test samples and controls. Cells were returned to a 37° C. incubation for 24 hours before further processing. At 24 hours, coverslips were fixed in −20° C. methanol for 15 minutes followed by a 15 minute incubation in phosphate buffered saline +0.1% Triton X-100 (PBS-Tx). Coverslips were then incubated with a monoclonal antibody against α-tubulin (Sigma Chemical Co., St. Louis, Mo.) at a dilution of 1:1000 for 40 minutes in a humidified chamber at 37° C. Coverslips were washed for 15 minutes in PBS-Tx followed by a 40 minute incubation with goat anti-mouse IgG antibody conjugated to FITC (Amersham Corp., Arlington Heights, Ill.). The coverslips were again rinsed in PBS-Tx and incubated with 5 μM TOTO-3 (Molecular Probes, Eugene, Oreg.) for 20 minutes to label the nuclear DNA. Coverslips were immediately inverted onto slides in Vectashield (Vector Labs, Burlingame) to prevent photobleaching, sealed with nail varnish and stored at 4° C.
Slides were examined using a Bio-Rad MRC-1024 Laser Scanning Confocal Microscope mounted on a Nikon Eclipse E800 upright microscope with high numerical aperture objectives. […]

[2] = system: RPMI-18226 (multiple myeloma); test: MTT cytotoxicity assay, RPMI-18226; assay type: cell-based; conditions: Homo sapiens, RPMI18226
[3] = system: NALM-6 B-lineage ALL cells; test: Clonogenic assay, NALM-6; assay type: cell-based, human; conditions: 7 days
Procedure: (§1) The growth-inhibiting activity of the synthetic Phorboxazole A and the synthesized derivatives was tested in clonogenic assays. Cancer cells were treated with 1 nM, 10 nM, and 100 nM doses of synthetic Phorboxazole A or derivatives of phorboxazole A. Treated cells included U373 human glioblastoma cells, NALM-6, human B-lineage acute lymphoblastic leukemia cells, and BT-20 human breast cancer cells. The cancer cells were resuspended in clonogenic medium consisting of alpha-MEM supplemented with 0.9% methylcellulose, 30% fetal bovine serum, and 50 μM 2-mercaptoethanol. Cells were plated in duplicate Petri dishes at 100,000 cells/mL/dish and cultured in a humidified 5% CO2 incubator for 7 days. Cancer cell colonies were enumerated on a grid using an inverted phase microscope of high optical resolution. Results were expressed as % inhibition of clonogenic cells at a particular concentration of the test agent using the formula:
(§2) % Inhibition=(1−Mean # of colonies [Test]/Mean # of colonies [Control]×100.

[4] = system: DU-145 (prostate cancer); test: MTT cytotoxicity assay, DU-145; assay type: cell-based; conditions: Homo sapiens
Procedure: The cytotoxicity assay of synthetic Phorboxazole A and various derivative compounds against human tumor cells was performed using the MTT (3-[4,5-dimethylthiazol-2-yl]-2,5-diphenyl tetrazolium bromide) assay (Boehringer Mannheim Corp., Indianapolis, Ind.). Briefly, exponentially growing brain tumor cells were seeded into a 96-well plate at a density of 2.5×10^4 cells/well and incubated for 36 hours at 37° C. prior to drug exposure. On the day of treatment, culture medium was carefully aspirated from the wells and replaced with fresh medium containing the various phorboxazole A derivative compounds as well as the tyrosine kinase inhibitory isoflavone genistein (GEN) at concentrations ranging from 0.1 to 250 μM. Triplicate wells were used for each treatment.
The cells were incubated with the various compounds for 24-36 hours at 37° C. in a humidified 5% CO2 atmosphere. To each well, 10 μl of MTT (0.5 mg/ml final concentration) was added and the plates were incubated at 37° C. for 4 hours to allow MTT to form formazan crystals by reacting with metabolically active cells. […] The absorbance of each well was measured in a microplate reader (Labsystems) at 540 nm and a reference wavelength of 690 nm. […] The percent survival was calculated using the formula: [formula]
The IC50 values were calculated by non-linear regression analysis. […]

[5] = system: U373 human glioblastoma cells; test: Clonogenic assay, U373; assay type: cell-based; conditions: 7 days
Procedure: as §1, §2

[6] = system: leukemia NALM-6 cells; test: Mitochondrial transmembrane potential assay (DiIC1(5) staining); assay type: cell-based, human; conditions: 2.5 nM, 5 nM or 10 nM, 72 hours
Procedure: FIG. 2 are graphs showing the effect of synthetic phorboxazole A and phorboxazole A derivatives on the mitochondrial transmembrane potentials of leukemia NALM-6 cells.
Cells were incubated with 2.5 nM, 5 nM or 10 nM of phorboxazole A, 33-O-methyl-phorboxazole A or 45,46-dehydrobromo-phorboxazole A for 72 hours, stained with DiICl (5) to assess the mitochondrial membrane potential (Δψm) and then analyzed with a cell sorter equipped with a HeNe laser.

[7] = system: NALM-6 human B-lineage acute lymphoblastic leukemia cells; test: MTT cytotoxicity assay, NALM-6; assay type: cell-based; conditions: NALM-6 (leukemia, ALL), 24-36 hours, read-out: IC50 [MTT]
[8] = system: ARH77 (multiple myeloma); test: MTT cytotoxicity assay, ARH77; assay type: cell-based; conditions: Homo sapiens, ARH-77

SMILES: C=C1C[C@@H]2C[C@@H]3C[C@@H](O)C[C@@H](O3)c3coc(n3)/C=C/C[C@H]3O[C@@H](/C(C)=C/c4coc(C[C@]5(O)C[C@H](OC)C[C@H]([C@H](O)/C=C(C)/C=C/[C@@H](C/C=C/Br)OC)O5)n4)[C@H](C)[C@@H](OC(=O)/C=C\C[C@@H](C1)O2)[C@H]3C [Compound 1, Phorboxazole A]
- Apoptosis-inducing activity [1]: apoptotic activity
- IC50 [2]: 55.9 nM
- Mean Number Colonies/10^4 cells ([3]; 1 nM): 270
- Mean Number Colonies/10^4 cells ([3]; 10 nM): 0
- Mean Number Colonies/10^4 cells ([3]; 100 nM): 0
- inhibition at 0.001 µM ([3]; Homo sapiens, 168 h, 1 nM, read-out: Inhibition of clonogenic growth): 86.8%
- inhibition at 0.01 µM ([3]; Homo sapiens, 168 h, 10 nM, read-out: Inhibition of clonogenic growth): > 99.9%
- inhibition at 0.1 µM ([3]; Homo sapiens, 168 h, 100 nM, read-out: Inhibition of clonogenic growth): > 99.9%
- IC50 [4]: 15 nM
- Mean Number Colonies/10^4 cells ([5]; 10 nM): 378
- Mean Number Colonies/10^4 cells ([5]; 100 nM): 0
- inhibition at 0.01 µM ([5]; Homo sapiens, U373 MG, 168 h, 10 nM, read-out: Inhibition of clonogenic growth): 42.4%
- inhibition at 0.1 µM ([5]; Homo sapiens, U373 MG, 168 h, 100 nM, read-out: Inhibition of clonogenic growth): > 99.9%
- Depolarized mitochondria (mitochondrial membrane potential) [6]: progressive increase in depolarized mitochondria
- IC50 [7]: 1.7 nM
- IC50 [8]: 7.5 nM
